Data published in US20180355369A1, “Method for Increasing Plant Stress Tolerance and Seed Dormancy” (The Australian National University, priority 2015, published 2018).
*1 amine or outer side, *2 acyl side, *3 side chain or, on linkers, in order; H or OH if unused. Where a SMILES comes first, the peptide text is derived from it. Bridges are numbered along the chain shown (N, C = ends). Roman numbers before positions name the chains, in order. [ ]: non-standard residue; d: D form. Actinocin(9to1) = Cc1c2oc3c(C)ccc(C(=O)[*:1])c3nc-2c(C(=O)[*:2])c(N)c1=O; NMeV = CN[C@H](C(=O)O)C(C)C; Sar = CNCC(=O)O

Columns and labels:
stomata = experiment: Stomatal aperture in epidermal leaf peels; type: cell-based, Arabidopsis; details: for stomatal closure response to exogenous PAP with co-treatment: LiCl (SAL1 inhibitor) or ATP (PAP antiporter co-substrate) with PAP; for effect of inhibitor on ABA-induced stomatal closure: epidermal peels treated with ABA plus inhibitor
Method: (§1) Five- to six-week-old plants were used to prepare epidermal peels. ABA at a concentration of 20 μM in water was root fed to hydroponically grown plants or sprayed onto leaves using a Studio Series IS-875 with a 0.5 mm nozzle opening (Iwata). We investigated if PAP accumulation in the double mutants could affect the production of NO during ABA-induced stomatal closure by treating epidermal peels with the inhibitor of NO synthase N(G)-methyl-L-arginine (NMA). For the investigation of the effect of different chemicals on stomatal closure, 20 μM ABA (Sigma-Aldrich), 100 mM LiCl, or 1 mM ATP, 1 mM or 100 μM PAP (Sigma-Aldrich) alone or in different combinations were prepared in infiltration buffer (1 mM PIPES KOH pH 6.0, 1 mM Sodium citrate, 1 mM KCl, 15 mM Sucrose) modified from a cordycepin infiltration buffer.
Measurements of stomatal aperture were performed with epidermal strips taken from five- to six-week-old plants. Fully developed leaves were cut and placed with their adaxial side onto cello tape. The vein was removed by razor blade and the abaxial epidermis was subsequently peeled off by using another strip of cello tape. To promote stomatal opening, the peels left adhered to the Scotch (810D Magic Tape, ¾ inch, 3M) were placed in petri dishes filled with stomatal opening solution (10 mM MES, 5 mM KCl, 50 μM CaCl2, pH 6.5) and incubated for 2 h at 22° C. under 150-200 μmol photons m^−2 s^−1 of light. Once the stomata were fully open, strips were maintained in the opening buffer or treated with various compounds according to the experiment. After treatment, photographs of stomata were taken using Leica microscope (Leica Microsystems, Wetzlar, Germany) at 20×. Stomatal aperture was measured using the image-processing software ImageJ. For stomatal aperture measurements, the ratio of stomatal pore width and length was used instead of width as this normalizes the pores of stomata of different size. Small stomata with a stomatal pore length of less than 7.5 μm were discarded. For each data point, 90 stomata were measured in 3 independent experiments. In each experiment, 10 stomata were measured in 3 epidermal strips per sample per treatment.
Measurements of stomatal closure in response to ABA, PAP, cordycepin and ATP treatments were performed on epidermal strips from Arabidopsis and barley plants grown under specific conditions. Plants were grown under high humidity (approximately 80% RH) and 12 h/12 h and 22/20° C. light/dark cycle in a growth chamber. Epidermal peels of newly expanding true leaves of three to four-week old plants. Stomatal apertures were measured in epidermal peels of newly expanded leaves. Peels were taken from the abaxial leaf surface and were fixed to the glass bottom of the experimental chamber after coating the chamber surface with an optically clear and pressure-sensitive silicon adhesive (Factor II, Tucson, USA). The attached epidermal peel is subsequently immersed in an opening buffer (OB: 50 mM KCl, 5 mM MES titrated to pH 6.1 with NaOH) and incubated, at plant growth conditions, for approximately 2 h. Stomatal images were taken using a bright-field microscope capable of 400× magnification for 10 minutes in OB and subsequently in Measuring Buffer [MB: 10 mM KCl, 5 mM MES titrated to pH 6.1 with Ca(OH)2] or PAP or cordycepin or ABA (dissolved in MB) for another 50 min. In total this was a 60 minute time course and images of the epidermal section were taken every 5 minutes using NIS Elements software (Nikon, Japan). Stomata aperture width and length were measured using Image J (NIH, USA). The pore area of each stomate was calculated using these values under the assumption that the area of a stomatal pore was that of an ellipse. Data are expressed as percentage over the control.

guard cells = experiment: ROS accumulation in guard cells of epidermal peels; type: cell-based, Arabidopsis; details: wild type, ost1-2 and ost1-2 alx8
Method: The ABA- and PAP-induced accumulation of ROS in guard cells of epidermal peels was measured using dichlorofluorescein diacetate (H2DCFDA, Invitrogen). After 2 h of incubation in OB, the epidermal peel was incubated with 20 μM dye dissolved in DMSO and MB for 30 min, and then rinsed with MB three times. Epidermal peels were incubated in ABA or PAP dissolved in MB (or MB only as a negative control) for 10 min. Fluorescence images were taken using a Leica inverted confocal microscope controlled by the LAS AF software (Leica Microsystems, Germany). We used the 496-nm excitation line of an argon multiline laser. H2DCFDA fluorescence emission was detected at 505 to 525 nm. Chloroplast fluorescence was detected at 680 to 700 nm in order to separate the autofluorescence of chlorophyll in guard cells. Images were quantified with Image J software (National Institutes of Health, USA). The background signal was measured from the empty region of the similar size and subtracted from the stomata signal to obtain corrected total stomatal fluorescence values. Each stomate was considered to represent a single biological unit and thus fluorescence values were averaged across all stomata at each time point for each treatment. At least three biological replicates were measured for each treatment.

[1] = PAP quantification in leaves after exogenous ABA; type: in vivo, Arabidopsis; details: wild type leaves
Method: as §1
(§2) Total adenosines were extracted with 0.1 M HCl, derivatization with chloroacetaldehyde and quantified fluorometrically after HPLC fractionation. 3′-phosphoadenosine 5′-phosphate (PAP) quantification was performed by integrating the HPLC peak area and converting these to pmol units using standard curves of 1, 5 and 10 pmol standard.

[2] = PAP accumulation in leaves after petiole feeding; type: in vivo, Arabidopsis; details: petiole feeding of PAP for 1 h, alone or co-applied with LiCl or ATP
Method: as §1, §2

[3] = Accumulation of PAP analogues in leaves post-spraying; type: in vivo, Arabidopsis thaliana; details: foliar spray 100 mM, soil-grown wild type plants; 1 hr, 4 hr, 1 d, 4 d
Method: Five week-old soil-grown wild type Arabidopsis plants were sprayed using a Studio Series IS-875 with a 0.5 mm nozzle opening (Iwata). Each plant was sprayed with approximately 100 μl of different PAP analogues (100 mM) or mock buffer (1% DMSO) and then returned to standard growth conditions. 100 mg leaf tissue was harvested and snap-frozen in liquid nitrogen at various timepoints post-spraying (1 hr, 4 hr, 1 d and 4 d). Total adenosines were extracted, derivatized and quantified by HPLC. Identification and quantification of Analogues 8, 12 and 13 were performed by comparison to authentic standards. Triplicate treatments were carried out, and data presented as mean+/−standard deviation.

AtSAL1 = target: T1, AtSAL1 (Arabidopsis thaliana, UniProt Q42546); experiment: Inhibition of in vitro AtSAL1 activity against PAP; type: biochemical; details: against 50 μM PAP, Analogue 12 at 0, 3.35, 13.4 or 50 μM
T1 construct: Ubiquitin fusion partner (pHUE vector) (cleaved yes); made in house; host or cells: Escherichia coli BL21 DE3
T1 sequence (Q42546 1-353): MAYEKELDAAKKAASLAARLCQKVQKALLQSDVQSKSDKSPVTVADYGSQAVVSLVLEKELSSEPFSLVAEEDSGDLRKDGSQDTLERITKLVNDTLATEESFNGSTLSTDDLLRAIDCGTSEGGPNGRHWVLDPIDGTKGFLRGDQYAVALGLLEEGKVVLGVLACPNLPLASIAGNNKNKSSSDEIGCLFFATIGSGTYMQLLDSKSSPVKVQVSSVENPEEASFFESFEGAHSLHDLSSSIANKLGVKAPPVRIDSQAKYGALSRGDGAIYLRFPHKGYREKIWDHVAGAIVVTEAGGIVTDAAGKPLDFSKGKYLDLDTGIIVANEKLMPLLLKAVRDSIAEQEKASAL
Method: For estimation of inhibition of AtSAL1 activity by PAP analogue 12, 200 ng of purified recombinant SAL1 protein was incubated in 75 μl 2×activity buffer (200 mM Tris-MES pH 7.5, 2 mM Mg acetate) and Analogue 12 at a concentration of 0, 3.35, 13.4 or 50 μM for 1 hour at room temperature. The samples were then placed on ice, and 75 μl PAP added for a final reaction condition of 100 mM Tris-MES pH 7.5, 1 mM Mg acetate and 50 μM PAP. The reaction was allowed to proceed at 25 degrees Celsius for 5 minutes, then stopped by flash freezing in liquid nitrogen. The AMP formed from degradation of PAP by SAL1 was quantified by derivatization and resolving on HPLC. Duplicate treatments were carried out, and data presented as mean+/−standard error.

## CC1=CC(=O)CC(C)(C)C1(O)/C=C/C(C)=C\C(=O)O (stereo not shown) [ABA]
stomata; epidermal peels, FIGS. 5B and 5D
  time to ABA-induced stomatal closure: < 10 min
Guard cells
  ROS burst in guard cells: ROS burst known to stimulate stomatal closure was observed in response to ABA treatment in wild type
[1]
  PAP accumulation stimulated by exogenous ABA: stimulates PAP accumulation by four fold

## Nc1ncnc2c1ncn2[C@@H]1O[C@H](COP(=O)(O)OP(=O)(O)OP(=O)(O)O)[C@@H](O)[C@H]1O [ATP]
stomata
  stomatal closure response to exogenous PAP with co-treatment: a stronger, cumulative response was achieved
[2]
  accumulation of PAP in leaves: significantly enhanced

## CCNC(=O)C1OC(n2cnc3c(N)ncnc32)C(O)C1O (stereo not shown) [Analogue 8, 5-(6-amino-9H-purin-9-yl)-N-ethyl-3,4-dihydroxytetrahydro-2-furancarboxamide]
[3]
  accumulation of PAP analogue in leaf tissue after spraying: showed rapid accumulation of PAP analogues to levels comparable with those for PAP found in leaf tissue in vivo

## Nc1ncnc2c1nc(S)n2C1OC(CO)C(O)C1O (stereo not shown) [Analogue 12, 2-(6-amino-8-mercapto-9H-purin-9-yl)-5-(hydroxymethyl) tetrahydro-3,4-furandiol]
AtSAL1
  inhibition of in vitro SAL1 activity: inhibition of in vitro SAL1 activity
AtSAL1; listed as analogue 12
  inhibition of in vitro SAL1 activity: found to inhibit in vitro SAL1 activity
[3]
  accumulation of PAP analogue in leaf tissue after spraying: showed rapid accumulation of PAP analogues to levels comparable with those for PAP found in leaf tissue in vivo

## COC(=O)C1OC(n2cnc3c(N)ncnc32)C(O)C1O (stereo not shown) [Analogue 13, methyl 5-(6-amino-9H-purin-9-yl)-3,4-dihydroxytetrahydro-2-furancarboxylate]
[3]
  accumulation of PAP analogue in leaf tissue after spraying: showed rapid accumulation of PAP analogues to levels comparable with those for PAP found in leaf tissue in vivo

## Nc1ncnc2c1ncn2[C@@H]1O[C@H](CO)C[C@H]1O [Analogue 16, 3′-deoxyadenosine]
stomata; leaf peels of wild type plants, 1 hr, PAP 100 μM, ABA 100 μM, cordycepin 10 μM
  stomatal closure in leaf peels: elicited rapid stomatal closure similar to the PAP response

## [Cl-].[Li+] [LiCl]
stomata
  stomatal closure response to exogenous PAP with co-treatment: a stronger, cumulative response was achieved
[2]
  accumulation of PAP in leaves: significantly enhanced

## CNC(=N)NCCC[C@H](N)C(=O)O [NMA, N(G)-methyl-L-arginine]
stomata
  effect of inhibitor on ABA-induced stomatal closure: reduced ABA-induced stomatal closure in Col-0Ler

## Cc1c2oc3c(C)ccc(C(=O)N[C@@H]4C(=O)N[C@H](C(C)C)C(=O)N5CCC[C@H]5C(=O)N(C)CC(=O)N(C)[C@@H](C(C)C)C(=O)O[C@@H]4C)c3nc-2c(C(=O)N[C@@H]2C(=O)N[C@H](C(C)C)C(=O)N3CCC[C@H]3C(=O)N(C)CC(=O)N(C)[C@@H](C(C)C)C(=O)O[C@@H]2C)c(N)c1=O [actinomycin D] (I: T[dV]P[Sar][NMeV] / II: T[dV]P[Sar][NMeV]; ester I:1-I:C, II:1-II:C; linker I:N-II:N via Actinocin(9to1))
stomata
  effect of inhibitor on ABA-induced stomatal closure: suppressed ABA-mediated closure to a lesser extent in ost1-2 alx8 than in the wild type

B1: Arabidopsis thaliana SAL1, mature recombinant protein (transit peptide excluded) (protein)
chain: T1 sequence (Q42546 1-353)
other
  kcat (enzyme activity against PAP): up to 6-fold decrease in kcat for the oxidized dimeric rSAL1
